Measurements from ChEMBL document CHEMBL3137667, “[Drug-induced liver injury; fourteenth updated edition of the bibliographic database of liver injuries and related drugs]” (Gastroenterol Clin Biol, 2004).

Experiments:
[1] = human
[2] = Highest frequency of moderate liver toxicity observed during clinical trials, expressed as a percentage. [column '% BIOL' in source]; conditions: human
[3] = human; remark: listed apart in the source
[4] = human; remark: listed apart in the source
[5] = human; remark: listed apart in the source
[6] = Times to onset, minimal and maximal, observed in the indexed observations. [column 'DELAI' in source]; conditions: human
[7] = human; remark: listed apart in the source
[8] = Proposed mechanism(s) of liver damage. [column 'MEC' in source]; conditions: human
[9] = Highest frequency of acute liver toxicity observed during clinical trials, expressed as a percentage. [column '% AIGUE' in source]; conditions: human
[10] = human; remark: listed apart in the source
[11] = human; remark: listed apart in the source
[12] = human, serum
[13] = human, serum, 4383 h
[14] = human, serum; remark: listed apart in the source
[15] = human; remark: listed apart in the source
[16] = human; remark: listed apart in the source
[17] = human; remark: listed apart in the source
[18] = Presence of at least one case with successful reintroduction. [column 'REINT' in source]; conditions: human
[19] = Comments (NB not yet translated). [column 'COMMENTAIRES' in source]; conditions: human
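For Hepatotoxicity (association with vascular disease) in this document: count of indexed literature references reporting vascular liver injury in humans, e.g. peliosis hepatitis, hepatic veno-occlusive disease or Budd-Chiari syndrome.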
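For Hepatotoxicity (benign tumour) in this document: value is a count of indexed literature references citing a benign tumour confirmed by histopathology.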
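For Hepatotoxicity (choleostasis) in this document: human cholestatic liver injury, shown by histopathology or by peak ALT or AST elevation over alkaline phosphatase ratio below 2, value counts indexed literature reports.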
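For Hepatotoxicity (chronic liver disease) in this document: chronic liver injury confirmed by histopathology or persistently raised serum aminotransferase activity beyond 6 months, value given as the count of indexed literature references.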
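For Hepatotoxicity (cirrhosis) in this document: value is a count of indexed literature references reporting cirrhosis confirmed by histopathology.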
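For Hepatotoxicity (cytolytic) in this document: human cytolytic liver injury, shown by histopathology or by a ratio above 5 of peak ALT or AST elevation to alkaline phosphatase elevation, value counts indexed references.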
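For Hepatotoxicity (granulomatous hepatitis) in this document: value is a count of indexed literature references reporting granulomatous liver disease confirmed by histopathology.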
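For Hepatotoxicity (malignant tumour) in this document: malignant tumour confirmed by histopathology, value gives the count of indexed literature references reporting it.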
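For Hepatotoxicity (severe hepatitis) in this document: human clinical data: severe hepatitis, meaning potentially life-threatening liver failure or clinically observed cases, the value counts how many indexed literature references report it.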
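For Hepatotoxicity (steatosis) in this document: steatosis confirmed by histopathology, value is the count of indexed references.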

Row | Structure (SMILES) | Hepatotoxicity (animal toxicity known) [3] | Hepatotoxicity (cytolytic) [4] | Hepatotoxicity (choleostasis) [5] | Hepatotoxicity (time to onset) [6] | Hepatotoxicity (steatosis) [7] | Hepatotoxicity (mechanism) [8] | Hepatotoxicity (benign tumour) [10] | Hepatotoxicity (malignant tumour) [11] | Hepatotoxicity (moderate) [12] | Hepatotoxicity (chronic liver disease) [13] | Hepatotoxicity (acute) [14] | Hepatotoxicity (association with vascular disease) [15] | Hepatotoxicity (cirrhosis) [16] | Hepatotoxicity (granulomatous hepatitis) [17] | Hepatotoxicity (successful reintroduction) [18] | Hepatotoxicity (severe hepatitis) [1] | Hepatotoxicity (moderate) [2] | Hepatotoxicity (acute) [9] | other results
1 | Cc1ncc([N+](=O)[O-])n1CCO [METRONIDAZOLE] | yes | 8 | 2 | 1 day - 2.3 months | 0 | Dose-dependant | 0 | 0 | 4 | 0 | 10 | 0 | 0 | 0 | yes | – | – | – | Hepatotoxicity (severe hepatitis) ([1]; Liver): 1; Hepatotoxicity (moderate) ([2]; Liver): 25%; Hepatotoxicity (acute) ([9]; Liver): 0%
2 | N=C(N)c1ccc(OCCCCCOc2ccc(C(=N)N)cc2)cc1 [PENTAMIDINE] | yes | 4 | 0 | 1 week - 3 months | 1 | – | 0 | 0 | 17 | 0 | 4 | 0 | 0 | 0 | yes | 2 | 43.5% | 0% | –
3 | N[C@@H]1C[C@H]1c1ccccc1.N[C@H]1C[C@@H]1c1ccccc1 [TRANYLCYPROMINE] | yes | – | – | – | 0 | – | 0 | 0 | 0 | 0 | 2 | 0 | 0 | – | yes | – | – | – | Hepatotoxicity (severe hepatitis) ([1]; Liver): 0; Hepatotoxicity (moderate) ([2]; Liver): 0%; Hepatotoxicity (cytolytic) ([4]; Liver): 2; Hepatotoxicity (choleostasis) ([5]; Liver): 2; Hepatotoxicity (acute) ([9]; Liver): 0%; Hepatotoxicity (granulomatous hepatitis) ([17]; Liver): 0
4 | O=c1ccc2ccccc2o1 [COUMARIN] | yes | 11 | 1 | 5 days - 6 months | 0 | Dose-dependant | 0 | 0 | 8 | 0 | 16 | 0 | 0 | 0 | yes | 3 | 8.7% | 4.3% | –
5 | Cc1nnc2n1-c1ccc(Cl)cc1C(c1ccccc1)=NC2 [ALPRAZOLAM] | A | 2 | 1 | 3 days - 3 weeks | 0 | Dose-dependant | 0 | 0 | 3 | 0 | 4 | 1 | 0 | 0 | yes | 1 | 8% | 0.4% | –
6 | COC1=CC(=O)C[C@@H](C)[C@]12Oc1c(Cl)c(OC)cc(OC)c1C2=O [GRISEOFULVIN] | yes | 1 | 2 | 3 days - 4.5 months | 0 | – | 0 | 0 | 9 | 0 | 5 | 0 | 0 | 0 | yes | 0 | 50% | 2.8% | –
7 | O=C1c2cccc(O)c2C(=O)c2c(O)cccc21 [DANTHRON] | yes | 0 | 0 | 2 days - 1 year | 0 | – | 0 | 0 | 1 | 1 | 0 | 0 | 0 | 0 | yes | 0 | 0% | 0% | –
8 | C[C@@H]1[C@H](O)[C@@H](C)/C=C/C=C/C=C/C=C/C=C/C=C/C=C/[C@H](O[C@@H]2O[C@H](C)[C@@H](O)[C@H](N)[C@@H]2O)C[C@@H]2O[C@](O)(C[C@@H](O)C[C@@H](O)[C@H](O)CC[C@@H](O)C[C@@H](O)CC(=O)O[C@H]1C)C[C@H](O)[C@H]2C(=O)O [AMPHOTERICIN B] | yes | 6 | 7 | 2 days - 4 months | 2 | Dose-dependant | 0 | 0 | 28 | 0 | 15 | 0 | 0 | 0 | yes | 4 | 91.7% | 50% | –
9 | COc1ccc2c(c1)c(CC(=O)O)c(C)n2C(=O)c1ccc(Cl)cc1 [INDOMETHACIN] | yes | 8 | 10 | 3 days - 10 years | 0 | Allergic, Reactive metabolite | 0 | 0 | 7 | 0 | 17 | 0 | 0 | 0 | yes | 5 | 25% | 1% | –
10 | C[C@H]1O[C@H](O[C@H]2[C@H](O)[C@@H](O)[C@@H](O[C@H]3[C@H](O)[C@@H](O)C(O)O[C@@H]3CO)O[C@@H]2CO)[C@H](O)[C@@H](O)[C@@H]1N[C@H]1C=C(CO)[C@@H](O)[C@H](O)[C@H]1O (some centres not stated) [ACARBOSE] | yes | 6 | 0 | 1 week - 1.5 years | 0 | – | 0 | 0 | 6 | 0 | 7 | 0 | 0 | 0 | yes | 0 | 9.9% | 0% | –
11 | CC(=O)N[C@H]1[C@@H](O[C@H]2[C@H](O)[C@@H](O)[C@H](O[C@H]3[C@H](CS(=O)(=O)O)[C@@H](OS(=O)(=O)O)[C@@H](O[C@H]4[C@H](O)[C@@H](OS(=O)(=O)O)C(O)O[C@H]4C(=O)O)O[C@@H]3O)O[C@@H]2C(=O)O)O[C@H](COS(=O)(=O)O)[C@@H](O)[C@@H]1O (some centres not stated) [SODIUM HEPARIN] | yes | 3 | 1 | 2 days - 2 weeks | 0 | Dose-dependant | 0 | 0 | 20 | 0 | 4 | 0 | 0 | 0 | – | 1 | 90% | 0% | Hepatotoxicity (comment) [19]: RUPTURE_HEPATIQUE
